Experimental data reported in patent US20040266718A1, “Inhibition of specific histone deacetylase isoforms” (priority 2001, published 2004).
d = 2'-deoxy (DNA); m = 2'-O-methyl

What was measured:
A549 [1] = assay: apoptosis, Cell Death Detection ELISA, A549; assay type: cell-based, human; conditions: OSDN
Protocol: (§1) In order to determine the effect of HDAC OSDNs on cell growth and cell death through apoptosis, A549 or T24 cells, MDAmb231 cells, and HMEC cells (ATCC, Manassas, Va.) were treated with HDAC OSDNs as previously described.
(§2) For the apoptosis study, cells were analyzed using the Cell Death Detection ELISA^Plus kit (Roche Diagnostic GmBH, Mannheim, Germany) according to the manufacturer's directions. Typically, 10,000 cells were plated in 96-well tissue culture dishes for 2 hours before harvest and lysis. Each sample was analyzed in duplicate. ELISA reading was done using a MR700 plate reader (DYNEX Technology, Ashford, Middlesex, England) at 410 nm. The reference was set at 490 nm.

[2] = test system: p21 protein in A549 cells; assay: Western blot of p21 protein in A549 cells; assay type: cell-based, human; conditions: FIG. 15
MDAmb231 [3] = assay: apoptosis, Cell Death Detection ELISA, MDAmb231; assay type: cell-based, human; conditions: OSDN
Protocol: as §1, §2

T24 [4] = assay: cell growth analysis (trypan blue cell count), T24; assay type: cell-based, human; conditions: 50 nM, 72 hours
Protocol: (§3) Briefly, human A549 and/or T24 human bladder carcinoma cells were seeded in 10 cm tissue culture dishes one day prior to oligonucleotide treatment. The cell lines were obtained from the American Type Culture Collection (ATCC) (Manassas, Va.) and were grown under the recommended culture conditions. Before the addition of the oligonucleotides, cells were washed with PBS (phosphate buffered saline). Next, lipofectin transfection reagent (GIBCO BRL Mississauga, Ontario, Calif.), at a concentration of 6.25 μg/ml, was added to serum free OPTIMEM medium (GIBCO BRL, Rockville, Md.), which was then added to the cells. The oligonucleotides to be screened were then added directly to the cells (i.e., one oligonucleotide per plate of cells). Mismatched oligonucleotides were used as controls. The same concentration of oligonucleotide (e.g., 50 nM) was used per plate of cells for each oligonucleotide tested.
as §1
(§4) Cells were harvested and cell numbers counted by trypan blue exclusion using a hemocytometer. Percentage of inhibition was calculated as (100—AS cell numbers/control cell numbers)%.

T24 [5] = assay: apoptosis, Cell Death Detection ELISA, T24; assay type: cell-based, human; conditions: OSDN
Protocol: as §1, §2

A549 [6] = assay: cell growth analysis (trypan blue cell count), A549; assay type: cell-based, human; conditions: 50 nM, 72 hours
Protocol: as §3, §1, §4

human HDAC-4 RNA = assay: antisense screen by Northern blot in T24 cells, HDAC-4; assay type: cell-based; conditions: screened as above (T24 cells, 100 nM, 24 hours)
Protocol: Seventeen phosphorothioate ODNs containing sequences complementary to the 5′ or 3′ UTR of the human HDAC-4 gene (GenBank Accession No. AB006626) were screened as above. […] HDAC-4 MM1 and MM2 oligonucleotides were created as controls; compared to the antisense oligonucleotides, they each contain a 6-base mismatch.
as §3
Cells were harvested, and total RNAs were analyzed by Northern blot analysis. Briefly, total RNA was extracted using RNeasy miniprep columns (QIAGEN). […]

HMEC = assay: apoptosis, Cell Death Detection ELISA, HMEC; assay type: cell-based, human; conditions: OSDN, normal cells
Protocol: as §1, §2

MDAmb231 [7] = assay: cell growth analysis (trypan blue cell count), MDAmb231; assay type: cell-based, human; conditions: 50 nM, 72 hours
Protocol: as §3, §1, §4

human HDAC-7 RNA = assay: antisense screen by Northern blot in T24 cells, HDAC-7; assay type: cell-based; conditions: screened as above (T24 cells, 100 nM, 24 hours)
Protocol: Eighteen phosphorothioate ODNs containing sequences complementary to the 5′ or 3′ untranslated regions of the human HDAC-7 gene (GenBank Accession No. AF239243) were screened as above.
as §3
Cells were harvested, and total RNAs were analyzed by Northern blot analysis. Briefly, total RNA was extracted using RNeasy miniprep columns (QIAGEN). Ten to twenty μg of total RNA was run on a formaldehyde-containing 1% agarose gel with 0.5 M sodium phosphate (pH 7.0) as the buffer system. […]

Substance	Apoptosis After 48 Hour Treatment A549 (A549 [1])	expression of the p21 protein [2]	Apoptosis After 48 Hour Treatment MDAmb231 (MDAmb231 [3])	Growth Inhibition (AS vs. MM) T24 (T24 [4])	Apoptosis After 48 Hour Treatment T24 (T24 [5])	Growth Inhibition (AS vs. MM) A549 (A549 [6])	antisense activity to human HDAC-4 (RNA expression, Northern blot) (human HDAC-4 RNA)	Apoptosis After 48 Hour Treatment HMEC (HMEC)	Growth Inhibition (AS vs. MM) MDAmb231 (MDAmb231 [7])	antisense activity to human HDAC-7 (RNA expression, Northern blot) (human HDAC-7 RNA)
HDAC-4 AS1: antisense oligonucleotide to human HDAC4, 5-GCTGCCTGCCGTGCCCACCC-3′ (SEQ ID NO:24) (sugars from the 5' end m4 d12 m4, all phosphorothioate, methylation of C and T or U not given here)	+++ (5-8X fold)	induces the expression of the p21 protein	++ (3-5X fold)	++ (50-75% inhibition)	+ (2-3X fold)	+++ (>75% inhibition)	antisense activity	− (< = 2x fold over non-specific background)	++ (50-75% inhibition)	
HDAC-7 AS: antisense oligonucleotide to human HDAC7, 5′-CTTCAGCCAGGATGCCCACA-3′ (SEQ ID NO:31) (sugars from the 5' end m4 d12 m4, all phosphorothioate, methylation of C and T or U not given here)										antisense activity
